Reference: US8088772B2, “Sulfonamides and their use as a medicament” (The Genetics Company, Inc., priority 2006, dated 2012)

Columns and labels:
Wnt pathway = assay: Cell Assay (CA): inhibition of Wnt activity in cancer cells, Tcf reporter gene; type: cell-based; conditions: inhibition class in the Cell Assay
Description: Inhibition of Wnt Activity in Cancer Cells
The effect of β-catenin/BCL9 inhibitors identified in the ELISA-based protein-protein interaction assay on the Wnt pathway can be evaluated in a cell culture system using a reporter gene responsive to the Tcf/Lef family of transcription factors or by quantitative analysis of Wnt target genes in appropriate cell lines.
A reporter gene is a construct which comprises a readily detectable or assayable gene such β-galactosidase, green fluorescent protein, chloramphenicol acetyltransferase or luciferase, linked in cis to a transcription factor response element and a minimal promoter. Depending on the expression vectors used, this protocol can be applied, e.g. for mammalian as well as for Drosophila cell lines. For instance, colon cancer cells with constitutively active Wnt pathway like DLD-1 or SW620 (ATCC) are a well suitable system. Hereby, a Tcf-4 driven luciferase reporter plasmid (i.e. TOP-FLASH, Upstate biotechnology, New York, USA) is transiently or stably transfected into cells known in the art. Any means for introducing genetic material into cells can be used, including but not limited to infection, electroporation or transfection. For instance, to introduce DNA into DLD-1 cells, a lipofection agent like the Lipofectamine transfection reagent (Life Technologies, Inc.) can be used. By transient transfection protocols, a second reporter gene, e.g. the renilla luciferase reporter plasmid pRL-SV40 (Promega Corporation, Madison USA), needs to be co-transfected to normalize for transfection efficiency. Drugs are added to the media 24 h after trans-fection (transient transfection) or 24 h after seeding of the cells (stably transfected cells). Cell extracts are prepared 24 to 48 h later and assayed for reporter gene activity as described by the manufacturer (eg. for luciferase activity: Promega Corporation). Compounds reducing reporter gene activity more than 50% compared to solvent alone treated cells are considered as hits. In parallel, toxicity can be assessed for instance by the yellow tetrazolium salt cell proliferation assay (MTT) assay.

βCatenin-BCL9 = assay: ELISA based protein-protein interaction assay; type: binding; conditions: inhibition class of the βCatenin-BCL9 interaction
Procedure: In vitro ELISA-based Protein-protein Interaction Assay
Protein Production in Bacteria
cDNAs including the binding domains of Lgs and βCatenin were fused downstream of glutathione-S-transferase (GST) cDNA in pGEX-4T inducible bacterial expression vector (Pharmacia). Fusion proteins were produced in BL21 bacteria (e.g. Stratagene) following manufacturer's recommendation.
To isolate the produced fusions protein bacteria were lysed in sonication buffer (10 mM Tris HCl pH 8.0, 150 mM NaCl, 1 mM EDTA, 1.5% sarkosyl, 2% Triton-X-100, 1 mM DTT and protease inhibitors), followed by short sonication on ice (e.g. 3 times 20 seconds at middle power) and centrifugation. Cleared supernatants were incubated under gentle rotation with glutathione beads (Amersham Pharmacia) for 2 hrs at 4° C. Finally, beads were washed several time in washing buffer (20 mM Tris pH 8.0, 200 mM NaCl, 1 mM EDTA, 1 mM DTT, 1 mM MgCl2, 0.5% NP40), and stored in storage buffer (20 mM Tris pH 8.0, 200 mM NaCl, 1 mM EDTA, 1 mM DTT, 1 mM MgCl2, 10% glycerol, 0.5% NP40, and proteinase inhibitors). The quality of the preparations was checked by SDS-gel electrophoresis by standard methods well known by persons skilled in the art. […]

| Structure (SMILES) | CA (Wnt pathway) | ELISA (βCatenin-BCL9) |
| --- | --- | --- |
| O=[N+]([O-])c1ccc(N/N=C/c2ccc(O)c(O)c2)c(S(=O)(=O)Nc2ccccc2Cl)c1 [TGC0008709] | 4 (61-80% inhibition) | 3.5 |
| O=[N+]([O-])c1ccc(N/N=C/c2cc(Cl)cc(Cl)c2O)c(S(=O)(=O)Nc2ccccc2Cl)c1 [TGC0010527] | 4.5 | 3 (41-60% inhibition) |
| O=[N+]([O-])c1ccc(N/N=C/c2cc(Cl)cc(Cl)c2)c(S(=O)(=O)Nc2ccccc2Cl)c1 [TGC0010536] | 5 (81-100% inhibition) | 2 (21-40% inhibition) |
| O=[N+]([O-])c1ccc(N/N=C/c2cccc(Oc3ccccc3)c2)c(S(=O)(=O)Nc2ccccc2Cl)c1 [TGC0010583] | 4 (61-80% inhibition) | 2 (21-40% inhibition) |
| Cc1ncc(CO)c(/C=N/Nc2ccc([N+](=O)[O-])cc2S(=O)(=O)Nc2ccccc2Cl)c1O [TGC0010626] | 4.5 | 3 (41-60% inhibition) |
| O=[N+]([O-])c1ccc(NN=C(Cc2ccccc2)Cc2ccccc2)c(S(=O)(=O)Nc2ccccc2Cl)c1 [TGC0010661] | 3 (41-60% inhibition) | 2 (21-40% inhibition) |
| O=C1Nc2ccccc2/C1=N/Nc1ccc([N+](=O)[O-])cc1S(=O)(=O)Nc1ccccc1Cl [TGC0010663] |  | 2.5 |
| CCN1C(=O)/C(=N\Nc2ccc([N+](=O)[O-])cc2S(=O)(=O)Nc2ccccc2Cl)c2ccccc21 [TGC0010665] | 4 (61-80% inhibition) | 2 (21-40% inhibition) |
| Cc1cc(/C=N\Nc2ccc([N+](=O)[O-])cc2S(=O)(=O)Nc2ccccc2Cl)c(C)n1-c1ccc(Cl)cc1 [TGC0010673] | 4.5 | 1 (0-20% inhibition) |
| Cc1nn(-c2ccc(F)cc2)c(Cl)c1/C=N\Nc1ccc([N+](=O)[O-])cc1S(=O)(=O)Nc1ccccc1Cl [TGC0010674] |  | 2.5 |
| O=S(=O)(Nc1ccccc1Cl)c1ccccc1Cl [TGC0011155] |  | 1 (0-20% inhibition) |
| O=S(=O)(Nc1ccccc1Cl)c1ccccc1Br [TGC0011157] |  | 1 (0-20% inhibition) |
| O=S(=O)(Nc1ccccc1Cl)c1cccc(Br)c1 [TGC0011158] |  | 1 (0-20% inhibition) |
| CC(=O)Nc1ccc(/C=N/Nc2ccc([N+](=O)[O-])cc2S(=O)(=O)Nc2ccccc2Cl)cc1 [TGC0011358] | 3 (41-60% inhibition) | 1.5 |
| O=[N+]([O-])c1ccc(N/N=C/c2ccc(O)cc2)c(S(=O)(=O)Nc2ccccc2Cl)c1 [TGC0011359] | 3 (41-60% inhibition) | 3 (41-60% inhibition) |
| COc1cc(Cl)cc(/C=N/Nc2ccc([N+](=O)[O-])cc2S(=O)(=O)Nc2ccccc2Cl)c1OCC(=O)O [TGC0011360] |  | 4.5 |
| CC/C=N/Nc1ccc([N+](=O)[O-])cc1S(=O)(=O)Nc1ccccc1Cl [TGC0011361] | 3.5 | 1 (0-20% inhibition) |
| O=[N+]([O-])c1ccc(N/N=C/c2ccccn2)c(S(=O)(=O)Nc2ccccc2Cl)c1 [TGC0011401] | 4 (61-80% inhibition) | 1.5 |
| O=[N+]([O-])c1ccc(N/N=C/c2cccnc2)c(S(=O)(=O)Nc2ccccc2Cl)c1 [TGC0011402] | 4 (61-80% inhibition) | 2 (21-40% inhibition) |
| O=[N+]([O-])c1ccc(N/N=C/c2ccncc2)c(S(=O)(=O)Nc2ccccc2Cl)c1 [TGC0011403] | 4 (61-80% inhibition) | 2 (21-40% inhibition) |
| O=[N+]([O-])c1ccc(N/N=C/c2ccc(CN3CCOCC3)cc2)c(S(=O)(=O)Nc2ccccc2Cl)c1 [TGC0011404] | 4 (61-80% inhibition) | 3 (41-60% inhibition) |
| O=[N+]([O-])c1ccc(N/N=C/c2ccnc3ccccc23)c(S(=O)(=O)Nc2ccccc2Cl)c1 [TGC0011405] | 4.5 |  |
| O=[N+]([O-])c1ccc(N/N=C/c2ccc(Oc3cccnc3)cc2)c(S(=O)(=O)Nc2ccccc2Cl)c1 [TGC0011406] | 4 (61-80% inhibition) |  |

| Structure (SMILES) | CA (Wnt pathway) | ELISA (βCatenin-BCL9) |
| --- | --- | --- |
| O=[N+]([O-])c1ccc(N/N=C/c2ccccc2-c2cccnc2)c(S(=O)(=O)Nc2ccccc2Cl)c1 [TGC0011409] | 4.5 | 3.5 |
| O=[N+]([O-])c1ccc(N/N=C/c2cccc(CN3CCOCC3)c2)c(S(=O)(=O)Nc2ccccc2Cl)c1 [TGC0011419] | 3 (41-60% inhibition) | 1.5 |
| O=[N+]([O-])c1ccc(N/N=C/c2cccc(OCCN3CCOCC3)c2)c(S(=O)(=O)Nc2ccccc2Cl)c1 [TGC0011420] | 2 (21-40% inhibition) | 1 (0-20% inhibition) |
| O=[N+]([O-])c1ccc(N/N=C/c2ccc(Br)cc2)c(S(=O)(=O)Nc2ccccc2Cl)c1 [TGC0011421] | 4 (61-80% inhibition) | 2.5 |
| CN1CCN(Cc2ccc(/C=N/Nc3ccc([N+](=O)[O-])cc3S(=O)(=O)Nc3ccccc3Cl)cc2)CC1 [TGC0011438] | 3 (41-60% inhibition) | 1 (0-20% inhibition) |
| N#Cc1ccc(Cl)c(NS(=O)(=O)c2ccccc2Br)c1 [TGC0011492] | 1 (0-20% inhibition) | 1 (0-20% inhibition) |
| O=S(=O)(Nc1ccccc1Cl)c1ccc(Cl)c(NS(=O)(=O)c2ccccc2Br)c1 [TGC0011493] | 1 (0-20% inhibition) | 1 (0-20% inhibition) |
| COC(=O)c1ccc(Cl)c(NS(=O)(=O)c2ccccc2Br)c1 [TGC0011494] | 1 (0-20% inhibition) | 1 (0-20% inhibition) |
| O=S(=O)(Nc1cc(S(=O)(=O)N2CCOCC2)ccc1Cl)c1ccccc1Br [TGC0011498] | 1 (0-20% inhibition) | 1 (0-20% inhibition) |
| COC(=O)c1ccc(NS(=O)(=O)c2ccccc2Br)c(Cl)c1 [TGC0011499] | 1 (0-20% inhibition) | 1 (0-20% inhibition) |
| CC(=O)Nc1ccc(Cl)c(NS(=O)(=O)c2ccccc2Br)c1 [TGC0011502] | 1 (0-20% inhibition) | 1 (0-20% inhibition) |
| C[n+]1cccc(/C=N/Nc2ccc([N+](=O)[O-])cc2S(=O)(=O)Nc2ccccc2Cl)c1.[I-] [TGC0011513] | 1 (0-20% inhibition) |  |
| C[n+]1ccccc1/C=N/Nc1ccc([N+](=O)[O-])cc1S(=O)(=O)Nc1ccccc1Cl.[I-] [TGC0011514] | 1 (0-20% inhibition) | 1 (0-20% inhibition) |
| COC(=O)c1ccc(C(=O)NNc2ccc([N+](=O)[O-])cc2S(=O)(=O)Nc2ccccc2Cl)cc1 [TGC0011562] | 1.5 | 2 (21-40% inhibition) |
| COc1ccc(/C=N/Nc2ccc([N+](=O)[O-])cc2S(=O)(=O)Nc2ccccc2Cl)cc1OC [TGC0011564] | 3.5 | 1 (0-20% inhibition) |
| O=C(NNc1ccc([N+](=O)[O-])cc1S(=O)(=O)Nc1ccccc1Cl)c1cc(Cl)cc(Cl)c1 [TGC0011568] | 4 (61-80% inhibition) | 1.5 |
| Cc1cc(-c2ccccc2)nn1-c1ccc([N+](=O)[O-])cc1S(=O)(=O)Nc1ccccc1Cl [TGC0011569] | 4 (61-80% inhibition) | 1.5 |
| Cc1cc(-c2ccccc2)n(-c2ccc([N+](=O)[O-])cc2S(=O)(=O)Nc2ccccc2Cl)n1 [TGC0011570] | 4 (61-80% inhibition) | 5 (81-100% inhibition) |
| Nc1ccc(NC(=O)Cc2ccc(Cl)cc2)c(S(=O)(=O)Nc2ccccc2Cl)c1 [TGC0011573] | 1 (0-20% inhibition) | 3 (41-60% inhibition) |
| O=C(Cc1ccc(Cl)cc1)Nc1ccc(N2CCOCC2)c(S(=O)(=O)Nc2ccccc2Cl)c1 [TGC0011574] | 2.5 | 3 (41-60% inhibition) |
| Cn1cncc1C#Cc1ccccc1S(=O)(=O)Nc1ccccc1Cl [TGC0012268] | 2.5 |  |
| CC(C)C/C=N/Nc1ccc([N+](=O)[O-])cc1S(=O)(=O)Nc1ccccc1Cl [TGC0012273] | 3.5 |  |
| CCCCCC#C/C=N/Nc1ccc([N+](=O)[O-])cc1S(=O)(=O)Nc1ccccc1Cl [TGC0012276] | 4.5 |  |
